The test system of data set [1] is A20 murine syngeneic B cell lymphoma. As to the kind of experiment: A20 lymphoma syngeneic model. The format is in vivo, BALB/c mice. As to conditions: Day 15; LPT-723 30 mpk p.o. bid; anti-PD-1 10 mpk i.p. twice a week. The method, then: BALB/c mice bearing A20 murine syngeneic B cell lymphoma were treated with control (vehicle), anti-PD-1 (clone RMP1-14), LPT-723 and anti-PD-1/LPT-723 combination. Treatment was initiated when tumor volume reached approximately 80-120 mm^3. Anti-PD-1 was dosed i.p. twice a week for three weeks at 10 mpk. LPT-723 was dosed p.o. twice a day at 30 mpk. […] No significant changes in body weights were noted.

A further data set concerns A20 cells. Kind of data set: In vitro cell viability assay, A20. The format is cell-based, murine. As to conditions: Mus musculus.
For a further data set, the system named is MBT-2 cells. As to the kind of experiment: In vitro cell viability assay, MBT-2. Format: cell-based, murine. Particulars: Mus musculus.
In data set [2] the test system is HCT-116 human colon xenografts. Kind of data set: HCT-116 human colorectal cancer xenograft model. The format is in vivo. Particulars: LPT-723 30 mpk p.o. twice a day, BALB/c nude mice. The method, then:
BALB/c nude mice bearing HCT-116 human colon xenografts were treated with control (vehicle) and LPT-723. Treatment was initiated when tumor volume reached approximately 80-120 mm^3. LPT-723 was dosed p.o. twice a day at 30 mpk.
Background: Xenograft models place foreign cells or tissue in a host animal.

The next data set relates to HCT116 cells. As to the kind of experiment: In vitro activity on HCT116 cells in culture. The format is cell-based, human. As to conditions: up to 30 μM.
In data set [3] the test system is Salmonella typhimurium TA98 and TA100. As to the kind of experiment: 2-Strain Ames test. Particulars: 1.5 to 5000 μg per plate, with and without rat liver S9. The text has this:
Test System: The two tester strains used were the Salmonella typhimurium histidine auxotrophs TA98 and TA100 as described by Ames et al. (1975). Tester strain TA98 is reverted from auxotrophy to prototrophy by frameshift mutagens while tester strain TA100 is reverted by mutagens that cause both frameshift and base pair substitution mutations.
Experimental Design: The test system was exposed to LPT-723 via the plate incorporation methodology originally described by McCann et al. (1975) and updated by Maron and Ames (1983). Briefly, LPT-723 was tested at eight dose levels along with appropriate vehicle control and positive controls. Overnight cultures of tester strains TA98 and TA100 were plated on selective minimal agar in the presence and absence of Aroclor-induced rat liver S9. […]
Plating and Scoring Procedures: LPT-723 dilutions were prepared immediately before use and delivered to the test system at room temperature under yellow light. […] Plates were counted immediately following the incubation period or were stored at 2-8° C. until colony counting could be conducted.
The condition of the bacterial background lawn was evaluated for evidence of LPT-723 toxicity using a dissecting microscope. Precipitate was evaluated by visual examination without magnification. […] Plates with sufficient LPT-723 precipitate to interfere with automated colony counting were counted manually. […]
(In the Ames test, an excess of revertant colonies over the control signals mutagenicity.)

From patent US11033537B2, “LPT-723 and immune checkpoint inhibitor combinations and methods of treatment” (BIOMED VALLEY DISCOVERIES, INC., priority 2015, dated 2021) come the findings set out here.

As usually defined, the IC50 is the concentration that gives 50% inhibition. Read a high IC50 as weaker potency.

For `Cc1cc(-c2cncc(C(O)C(F)(F)F)c2)nc2c1C(=O)N(c1cnn(CC(F)F)c1)C2(C)C` (stereo not drawn) [LPT-723], in data set [1], the “decrease in median tumor volume” value is 43%. Also, the IC50 came to 84.1 µM in the data set with A20 cells and 45.5 µM with MBT-2 cells. In data set [2], this compound came in with a tumor growth inhibition of 45%. In the data set with HCT116 cells, the “activity in vitro on HCT116 cells in culture” value is given as “no activity”. Also, the “toxicity (Ames plate incorporation)” value in data set [3] is on record as “No toxicity was observed”.
